In patent US20260027108A1, “PHARMACEUTICAL COMPOSITION OF HETEROARYL DERIVATIVE AND MEDICAL USE THEREOF” (Haisco Pharmaceutical Group Co., Ltd., priority 2022, published 2026):
Like-named read-outs stand apart in the source and are kept apart here.

Columns and labels:
[1] = tested on: MDA-MB-436 subcutaneous transplanted tumor; test: Mouse MDA-MB-436 subcutaneous in vivo transplanted tumor model; settings: Day 0-Day 10: 1 mg/kg, Day 11-Day 28: 0.1 mg/kg, once a day
Description: Human breast cancer MDA-MB-436 cells were placed in Leibovitz's L-15 medium (supplemented with 10 μg/mL insulin, 16 μg/mL glutathione, 10% fetal bovine serum and 1% penicillin-streptomycin solution) and cultured at 37° C. Conventional digestion treatment with trypsin was performed twice a week for passage. When the cell saturation was 80%-90%, and the number reached the requirement, the cells were harvested, counted, and inoculated. BALB/c nude mice (from Beijing Vital River Laboratory Animal Technology Co., Ltd.) were subcutaneously inoculated with 0.2 mL (10×10^6) of MDA-MB-436 cells (plus matrigel, with the volume ratio of 1:1) on the right back. When the average tumor volume reached about 180 mms, grouping and administration were performed (marked as Day 0). […] The administration frequency was once a day, the administration cycle was 29 days, and the drug withdrawal observation period was set to 14 days. After grouping, the tumor diameter was measured twice a week with a vernier caliper. The formula for calculating the tumor volume was: V=0.5×a×b^2, where a and b represented the long and short diameters of the tumor, respectively.

PARP1 enzyme = PARP1 enzyme (Homo sapiens (Human), UniProt P09874); test: PARP1 enzyme activity test (chemiluminescence kit, BPS Bioscience); assay type: biochemical; settings: read-out: PARP-1 enzyme activity IC50
Description: PARP1 chemical fluorescence detection kit was purchased from BPS Bioscience. The histone solution in the kit was diluted 5× with 1×PBS, and 25 μL of the diluted histone solution was added to a microwell plate and incubated overnight at 4° C. After the incubation, the plate was washed three times with PBST (0.05% Tween-20). 100 μL of the blocking solution was added to the microwell plate and incubated at 25° C. for 90 minutes. After the incubation was completed, the plate was washed three times with PBST. 2.5 μL of compounds at different concentrations diluted in test buffer and 12.5 μL of substrate mixed solution (1.25 μL 10×PARP test buffer; 1.25 μL 10×PARP test mixed solution; 2.5 μL Activated DNA, 7.5 μL double-distilled water) were added to the microwell plate. The PARP1 enzyme was diluted to 2 ng/μL, 10 μL of the diluent was added to the microwell plate, and the reaction system was incubated at 25° C. for 60 minutes.
After the incubation was completed, the plate was washed three times with PBST. Streptavidin-HRP was diluted 50× with a blocking solution, and 25 μL of the diluent was added to the microwell plate and incubated at 25° C. for 30 minutes. After the incubation, the plate was washed three times with PBST. ELISA ECL substrate A and substrate B were mixed at a ratio of 1:1 (v/v), 50 μL of the mixture was added to the microwell plate, and the chemiluminescence value was read.
Curve fitting was performed by four parameters (log(inhibitor) vs. response—Variable slope) using GraphPad Prism software, and the IC50 value was calculated.

MDA-MB-436 cells = test: MDA-MB-436 cell activity test (CellTiter-Glo, 7 days); assay type: cell-based, Human; settings: for IC50: 7 days incubation, read-out: MDA-MB-436 cell inhibitory activity IC50
Description: On day 1, the cells in the exponential growth phase were collected, and the cell suspension was adjusted to 4000 cells/135 μL with the culture medium. 135 μL of the cell suspension was added to each well of a 96-well cell culture plate and incubated overnight. On day 2, compounds at different concentrations were added, and the plate was placed in the incubator and incubated for 7 days. After the incubation was completed, according to operation instructions for a CellTiter-Glo kit (Promega, G7573), 75 μL of CTG solution, which was already pre-melted and equilibrated to room temperature, was added to each well, and the mixture was uniformly mixed for 2 min using a microplate shaker. The plate was placed at room temperature for 10 min, and then […] were measured using an Envision2104 plate reader (PerkinElmer). […] The IC50 value was calculated using GraphPad Prism software.

Sequence of PARP1 enzyme (P09874 whole entry): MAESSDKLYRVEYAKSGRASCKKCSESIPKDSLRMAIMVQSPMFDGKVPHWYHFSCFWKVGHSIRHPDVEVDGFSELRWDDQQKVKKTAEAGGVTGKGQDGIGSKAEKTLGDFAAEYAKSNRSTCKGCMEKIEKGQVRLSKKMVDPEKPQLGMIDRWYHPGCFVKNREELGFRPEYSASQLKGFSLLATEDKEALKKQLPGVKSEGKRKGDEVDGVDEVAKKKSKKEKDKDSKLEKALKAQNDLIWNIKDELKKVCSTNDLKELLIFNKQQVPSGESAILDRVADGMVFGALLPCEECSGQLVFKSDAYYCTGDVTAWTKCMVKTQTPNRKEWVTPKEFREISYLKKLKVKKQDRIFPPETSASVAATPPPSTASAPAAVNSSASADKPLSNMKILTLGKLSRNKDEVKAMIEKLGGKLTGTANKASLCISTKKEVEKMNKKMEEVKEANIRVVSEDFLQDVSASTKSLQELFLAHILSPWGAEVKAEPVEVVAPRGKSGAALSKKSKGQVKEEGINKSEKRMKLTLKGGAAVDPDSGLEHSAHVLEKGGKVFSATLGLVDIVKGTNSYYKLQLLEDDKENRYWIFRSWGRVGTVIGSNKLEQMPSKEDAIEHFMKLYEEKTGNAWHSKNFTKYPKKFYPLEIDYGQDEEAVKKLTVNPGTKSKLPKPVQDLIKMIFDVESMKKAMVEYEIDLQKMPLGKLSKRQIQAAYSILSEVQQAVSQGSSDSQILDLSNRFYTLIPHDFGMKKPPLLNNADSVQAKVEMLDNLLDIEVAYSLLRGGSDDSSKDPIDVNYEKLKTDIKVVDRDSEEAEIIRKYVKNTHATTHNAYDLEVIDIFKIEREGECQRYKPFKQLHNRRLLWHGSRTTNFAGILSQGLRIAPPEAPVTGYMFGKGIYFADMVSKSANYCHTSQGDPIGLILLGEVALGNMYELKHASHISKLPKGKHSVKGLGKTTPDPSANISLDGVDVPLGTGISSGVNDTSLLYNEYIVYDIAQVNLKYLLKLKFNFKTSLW

`CCc1cc2ncc(CN3CCN(c4ccc(C(=O)NC5CC5)nc4)CC3)cc2[nH]c1=O` [Compound 4] was tested, and the “body weight of the animals” value [1] was “no significant decrease”.
In the case of `CCC1=CC2N=CC(CN3CCN(c4ccc(C(=O)C[C@@H]5C[C@@H]5F)nc4)CC3)=CC2CC1=O` (stereo partly drawn) [Compound 11], the IC50 (PARP1 enzyme) is reported as 540 pM, the “Max inh. % 10 μM” value (MDA-MB-436 cells; 10 μM, MDA-MB-436 cells) is reported as 85.2% and the IC50 (MDA-MB-436 cells) is reported as 6000 pM.
Work on `CCc1cc2ncc(CN3CCN(c4ccc(NC(=O)[C@H]5C[C@H]5F)nc4)CC3)cc2[nH]c1=O` [Compound 34] yielded an IC50 (PARP1 enzyme) of 660 pM.
`CCc1cc2ncc(CN3CCN(c4ccc(NC(=O)[C@@H]5C[C@H]5F)nc4)CC3)cc2[nH]c1=O` [Compound 35] showed an IC50 (PARP1 enzyme) of 970 pM.
With `CCc1cc2ncc(CN3CCN(c4ccc(C(=O)NC5C[C@H]5F)nc4)CC3)cc2[nH]c1=O` (stereo partly drawn) [Compound 41] the IC50 (MDA-MB-436 cells; Homo sapiens, MDA-MB-436, 168 h) was 2300 pM and the inhibition at 10 µM (MDA-MB-436 cells; Homo sapiens, 10 μM, MDA-MB-436 cells, read-out: Max inh. % 10 μM) was 92.1%.
Molecule `COc1cc2ncc(CN3CCN(c4ccc(C(=O)NC5CN(c6ccccc6)C5)nc4)CC3)cc2[nH]c1=O` [Compound 46] has an IC50 (PARP1 enzyme) of 560 pM.
